Results published in US9527828B2, “Method for expanding hematopoietic stem cells using heterocyclic compound” (Nissan Chemical Industries, Ltd., priority 2007, dated 2016).

Key:
SRC = test: Transplantation of cell culture into NOD/SCID mice, human CD45+ cells in bone marrow (Example 7); format: in vivo; conditions: cells cultured with 1 μg/mL compound vs 10 ng/mL TPO; three weeks after transplantation (FIG. 3)
Procedure: Cultured cells obtained in the same manner as in Example 2 in the presence of TPO (Peprotech) at a final concentration of 10 ng/mL or in the presence of Compound No. 1 or No. 4 at a final concentration of 1 μg/mL was transplanted into at least three 7- to 8-week-old NOD/SCID mice by tail vein injection at 4 to 5×10^4 cells/mouse in terms of the initial number of CD34^+ cells after a sublethal dose of irradiation (2.75 to 3 Gy). Three weeks after the transplantation, the mice were killed, and the bone marrow cells were collected from both thighbones. Subsequently, the bone marrow cells were stained with a human CD45 antibody (APC, Becton, Dickinson and Company), then washed with PBS(−) containing 2% (v/v) FBS and stained with propidium iodide (Sigma-Aldrich Japan) added to a final concentration of 5 μg/mL. The stained cells were analyzed with a flow cytometer JSAN (Bay Bioscience) to determined the proportion of human CD45^+ cells in the bone marrow cells.
The proportions of human CD45^+ cells from the cell cultures incubated in the presence of 1 μg/mL of Compound No. 1 or No. 4 based on the proportion of human CD45^+ cells from the cell culture incubated in the presence of 10 ng/mL TPO are shown in FIG. 3.

CD34^+CD38^− cells [1] = test: Expansion of CD34+CD38− cells from human cord blood-derived CD34+ cells (Example 2); format: cell-based; conditions: Homo sapiens, 168 h, 1 μg/mL compound, 50 ng/mL SCF, StemSpan SFEM, 7 days; based on number of CD34+CD38− cells in the absence of compound; read-out: Expansion efficiency
Summary of the method: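 Human cord blood CD34+ cells (10000 cells/mL) were cultured 7 days at 37 °C, 5% CO2 in StemSpan SFEM with 50 ng/mL SCF and compound at 1 μg/mL final (0.1% DMSO). Viable cells were counted by trypan blue and the CD34+CD38− fraction by flow cytometry with PI exclusion; expansion is relative to no-compound culture, graded A (≥10), B (5–<10), C (3–<5).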

CD34^+NGFR^+ cells = test: Transfection of cord blood CD34+ cells with NGFR gene, CD34+NGFR+ cell expansion (Example 10); parameters: species or system human; conditions: TPO 20 ng/mL or compound 0.3 μg/mL, 20 ng/mL SCF and Flt-3; based on number of CD34+NGFR+ cells in the absence of them
Procedure: The human cord blood-derived CD34^+ cells collected or purchased in Example 1 were plated on 3 cm-Petri dishes (TPP) (100000 cells/3 ml/dish). As the culture medium, StemSpan SFEM (Stemcell Technologies) containing 20 ng/ml SCF (Peprotech) and 20 ng/mL Flt-3 (Wako Pure Chemical Industries) was used, and TPO (Peprotech) or Compound No. 1 or No. 4 in dimethyl sulfoxide in an amount of 0.1% (v/v) was added to a final concentration of 20 ng/mL or 0.3 μg/mL, respectively. A negative control culture was incubated in the absence of TPO and the compounds.
After the cells were incubated in liquid culture at 37° C. for 24 hours in a CO2 incubator (5% CO2), 2 ml of the culture medium was sucked out, and 2 ml of the solution of the retrovirus for expression of NGFR prepared in Example 7 (containing 5 μg/mL protamine sulfate (Sigma-Aldrich Japan), 20 ng/ml SCF (Peprotech) and 20 ng/mL Flt-3 (Wako Pure Chemical Industries)) was added. TPO (Peprotech) or Compound No. 1 or No. 4 in dimethyl sulfoxide in an amount of 0.1% (v/v) was further added to a final concentration of […] or 0.3 μg/mL, respectively, and centrifugation at 2000 g was carried out at 32° C. for 30 minutes. Then, the cells were incubated in liquid culture under the same conditions as mentioned above for 24 hours, 2 ml of the culture medium was sucked out, 2 ml of the same solution of the retrovirus for expression of NGFR was added together with TPO or either compound, and centrifugation at 2000 g was carried out at 32° C. for 30 minutes. […] The cells were incubated in liquid culture under the same conditions as mentioned above for 24 hours, and the number of viable cells was counted by trypan blue assay (GIBCO).
The number of CD34^+ cells carrying NGFR introduced via the retrovirus vector (the number of CD34^+NGFR^+ cells) was calculated as follows. […] The stained cells were analyzed with JSAN (Bay Bioscience) to determined the proportion of CD34^+NGFR^+ cells, which was multiplied by the number of viable cells to calculate the number of CD34^+NGFR^+ cells. […]

[2] = tested on: HPP-CFU colony forming cells; test: Blood cell colony forming assay, HPP-CFC colonies (Example 5); format: cell-based, human; conditions: liquid cultures of Example 2 (1 μg/mL compound), 500 cells/dish, MethoCult GF H4435, 12 days, averaged
Procedure: The effects of Compounds No. 1, No. 2, and No. 4 of the present invention on hematopoietic progenitor cells were measured by blood cell colony forming assay. The liquid cell cultures obtained in Example 2 were poured into 3.5-cm Petri dishes with MethoCult GF H4435 culture medium (Stemcell Technologies) at 500 cells/dish and incubated in a CO2 incubator (5% CO2, 37° C.) for 12 days. The number of HPP-CFC colonies in each plate was counted under a microscope routinely. The assay was carried out at least in duplicate, and the numbers of HPP-CFC colonies were averaged.

CD34^+CD38^− cells [3] = test: Expansion of CD34+CD38− cells using cord blood-derived CD34+CD38− cells (Example 6); format: cell-based, human; conditions: 1 μg/mL compound, CD34+CD38− starting cells, 50 ng/mL SCF, 7 days; based on number of CD34+CD38− cells in the presence of 10 ng/mL TPO
Procedure: The human cord blood-derived CD34^+CD38^− cells collected in Example 1 were plated on a 24-well plate (TPP) (from 3000 to 10000 cells/1 mL/well). As the culture medium, StemSpan SFEM (Stemcell Technologies) containing 50 ng/mL SCF (Peprotech) was used, and TPO (Peprotech) or Compound No. 1, No. 2, No. 4 or No. 6 in dimethyl sulfoxide in an amount of 0.1% (v/v) was added to a final concentration of […] or 1 μg/mL, respectively. After the cells were incubated in liquid culture at 37° C. for 7 days in a CO2 incubator (5% CO2), the number of CD34^+CD38^− cells was calculated in the same manner as in Example 2.
The expansion efficiencies in the presence of 1 μg/mL of the compounds based on the number of CD34^+CD38^− cells in the presence of 10 ng/mL TPO are shown in Table 5.

Compound | SRC expanding effect (proportion of human CD45+ cells in bone marrow) (SRC) | fold induction at 1 µg/mL (CD34^+CD38^− cells [1]) | Expansion efficiency (CD34^+NGFR^+ cells) | Number of HPP-CFC colonies [2] | Expansion efficiency (CD34^+CD38^− cells [3])
C/C(=N\NC(=O)c1ccc(C(=O)NCc2cn(C)cn2)s1)c1csc(-c2ccc(Cl)c(Cl)c2)c1O [Compound No. 1] | excellent SRC expanding effect | ≥ 10 | 9.8 | 41 | 1.9
C/C(=N\NC(=O)c1ccc(C(=O)NCc2ccc(C(N)=O)cc2)s1)c1csc(-c2ccc(Cl)c(Cl)c2)c1O [Compound No. 4] | excellent SRC expanding effect | ≥ 10 | 12.5 | 45 | 1.9
C/C(=N\NC(=O)c1ccc(C(=O)NCc2cc(C)n(C)n2)s1)c1csc(-c2ccc(Cl)c(Cl)c2)c1O [compound 2] |  | ≥ 10 |  | 35 | 2.7
C/C(=N\NC(=O)c1ccc(C(=O)Nc2cscn2)s1)c1csc(-c2ccc(Br)cc2)c1O [compound 6] |  | ≥ 10 |  |  | 1.4
thrombopoietin [TPO] |  |  | 7.7 |  | 
